Data reported in patent US7811352B2, “Fertilizer compositions and methods of using” (priority 2005, dated 2010).

Columns and labels:
[1] = system: Pennlinks creeping bentgrass maintained as a golf fairway; test: Phytotoxic injury rating, fairway creeping bentgrass (Example 15); type: in vivo
From the text: (§1) In this Example, the effect of a fertilizer comprising lysine on cool season fairway turfgrass growth was examined. The effects of lysine (HCl) and LIQUID LYSINE on a common type of golf course fairway variety turfgrass (Pennlinks creeping bentgrass maintained as a golf fairway) were compared with those of urea, Milorganite and a blended fertilizer (a blend of methylene urea and urea in an approximately 1:1 ratio).
Fifteen fertilizer treatments comprising three concentrations of each fertilizer composition (Milorganite (N—P—K, 6-2-0), urea (N—P—K, 46-0-0), a blended fertilizer, LIQUID LYSINE (N—P—K, 10-2-1), and lysine (HCl) (N—P—K, 15-2-1)) were prepared and applied to 3 replications of a well established Pennlinks creeping bentgrass maintained as a golf fairway grass. The urea, lysine (HCl), and LIQUID LYSINE were dissolved/suspended in 1.5 gal water prior to application. […] The urea, LIQUID LYSINE and lysine (HCl) were applied as foliar liquids, while Milorganite and the blended fertilizer were applied as granular fertilizers. Plot size was 4 ft×8 ft laid out in a replicated complete block design. Plots were mowed at 0.5 inches before fertilizer application and mowed three times per week to 0.5 inch height. Grass clippings were not removed from the plots and no supplemental cultural maintenance was applied. Irrigation (0.15 inch) was applied following application and every other day thereafter. Plots were rated for turfgrass quality (scale of 1-9 where 9=dark green turf, 1=dead/brown turf, and 6=minimally acceptable turf and phytotoxic injury (scale of 0-9 where 9=significant foliar injury and 2=minimally objectional foliar injury) throughout the study period. Quality was measured prior to application (day 0) and day 37, day 70 and day 95 after application. Injury was measured on day 37, day 70 and day 95 after application. All data was subject to statistical analysis and significant means were determined. Average turfgrass quality ratings for the treatments are presented in Table 24.

[2] = system: Pennlinks creeping bentgrass for greens; test: Turfgrass quality rating, greens creeping bentgrass (Example 16); type: in vivo; settings: scale of 1-9
From the text: as §1, with “greens quality” for “fairway”, “greens quality” for “fairway variety”, “for greens, mown at 0.1875 in height of cut)” for “maintained as a golf fairway)”
Fifteen fertilizer treatments comprising three concentrations of each fertilizer composition (Milorganite (N—P—K, 6-2-0), urea (N—P—K, 46-0-0), a blended fertilizer, LIQUID LYSINE N—P—K, 10-2-1), and lysine (HCl) (N—P—K, 15-2-1)) were prepared and applied to 3 replications of well established Pennlinks creeping bentgrass mown to 0.1875 in height cut. The urea, lysine (HCl), and LIQUID LYSINE were dissolved/suspended in 1.5 gal water prior to application. Each fertilizer treatment was applied in concentrations of 0.125 lb N/1000 ft^2/week, 0.250 lb N/1000 ft^2/week and 0.750 lb N/1000 ft^2/week. The urea, LIQUID LYSINE and lysine (HCl) were applied as foliar liquids, while Milorganite and blended fertilizer were applied as granular fertilizers. Plot size was 4 ft×8 ft laid out in a replicated complete block design. Plots were mowed at 0.1875 inches height before fertilizer application and mowed five times per week to 0.1875 inch height. Grass clippings were removed from the plots after each mowing. Irrigation (0.15 inch) was applied following application and daily thereafter. Plots were rated for turfgrass quality (scale of 1-9 where 9=dark green turf, 1=dead/brown turf, and 6=minimally acceptable turf) and phytotoxic injury (scale of 0-9 where 9=significant foliar injury and 2=minimally objectionable foliar injury) throughout the study period. Quality was measured prior to application (day 0) and day 37, day 70 and day 95 after application. Injury was measured on day 37, day 70 and day 95 after application. Ai) additional set of turfgrass plots were fertilized with three treatments of a soy concentrate fertilizer with the same application rates and methods. The quality and phytotoxic injury of the soy concentrate fertilizer plots were measured on day 95. All data was subject to statistical analysis and significant means were determined.

[3] = Weekly Rate 0.5 lbs N/1000 ft^2, Day 37
[4] = Weekly Rate 0.5 lbs N/1000 ft^2, Day 70
[5] = Weekly Rate 0.5 lbs N/1000 ft^2, Day 95
[6] = Weekly Rate 1.0 lbs N/1000 ft^2, Day 37
[7] = Weekly Rate 1.0 lbs N/1000 ft^2, Day 70
[8] = Weekly Rate 1.0 lbs N/1000 ft^2, Day 95
[9] = Weekly Rate 3.0 lbs N/1000 ft^2, Day 37
[10] = Weekly Rate 3.0 lbs N/1000 ft^2, Day 70
[11] = Weekly Rate 3.0 lbs N/1000 ft^2, Day 95
[12] = Weekly Rate 0.125 lbs N/1000 ft^2, Day 0
[13] = Weekly Rate 0.125 lbs N/1000 ft^2, Day 37
[14] = Weekly Rate 0.125 lbs N/1000 ft^2, Day 70
[15] = Weekly Rate 0.125 lbs N/1000 ft^2, Day 95
[16] = Weekly Rate 0.25 lbs N/1000 ft^2, Day 0
[17] = Weekly Rate 0.25 lbs N/1000 ft^2, Day 37
[18] = Weekly Rate 0.25 lbs N/1000 ft^2, Day 70
[19] = Weekly Rate 0.25 lbs N/1000 ft^2, Day 95
[20] = Weekly Rate 0.75 lbs N/1000 ft^2, Day 0
[21] = Weekly Rate 0.75 lbs N/1000 ft^2, Day 37
[22] = Weekly Rate 0.75 lbs N/1000 ft^2, Day 70
[23] = Weekly Rate 0.75 lbs N/1000 ft^2, Day 95

Row | Compound | Injury Rating - Fairway Bentgrass [1, 3] [ab] | Injury Rating - Fairway Bentgrass [1, 4] | Injury Rating - Fairway Bentgrass [1, 5] [bc] | Injury Rating - Fairway Bentgrass [1, 6] | Injury Rating - Fairway Bentgrass [1, 7] | Injury Rating - Fairway Bentgrass [1, 8] | Injury Rating - Fairway Bentgrass [1, 9] | Injury Rating - Fairway Bentgrass [1, 10] | Injury Rating - Fairway Bentgrass [1, 11] | Quality Rating - Greens Bentgrass [2, 12] | Quality Rating - Greens Bentgrass [2, 13] | Quality Rating - Greens Bentgrass [2, 14] | Quality Rating - Greens Bentgrass [2, 15] | Quality Rating - Greens Bentgrass [2, 16] | Quality Rating - Greens Bentgrass [2, 17] | Quality Rating - Greens Bentgrass [2, 18] [bc] | Quality Rating - Greens Bentgrass [2, 19] [ab] | Quality Rating - Greens Bentgrass [2, 20] | Quality Rating - Greens Bentgrass [2, 21] | Quality Rating - Greens Bentgrass [2, 22] [a] | also measured
1 | NC(N)=O [Urea, urea, reference compound] | 1.3 | 6.3 | 2.0 | 1.3ab | 6.0 | 1.3c | 1.0b | 5.7 | 4.3a | 4.3de | 4.7ef | 5.7c | 5.7b | 5.0bc | 6.3bc | 6.0 | 6.0 | 5.3b | 8.0a | 7.0 | Quality Rating - Greens Bentgrass [2, 23]: 6.7ab
2 | Cl.NCCCC[C@H](N)C(=O)O [Lys (HCl) 15% N, L-lysine monohydrochloride] | 1.3 | 5.7 | 2.0 | 1.0b | 5.0 | 3.0abc | 2.0a | 4.7 | 2.0bc | 4.7cd | 5.0de | 6.0bc | 6.0ab | 4.7cd | 6.0bcd | 6.0 | 6.3 | 6.0a | 7.0ab | 7.0 | Quality Rating - Greens Bentgrass [2, 23]: 7.0a
